Laboratory results taken from paper PMC7144022, “Quinolinecarboxamides Inhibit the Replication of the Bovine Viral Diarrhea Virus by Targeting a Hot Spot for the Inhibition of Pestivirus Replication in the RNA-Dependent RNA Polymerase” (Molecules, 2020).

Experiments:
[1] = Cytotoxicity assay, proliferation of exponentially growing MDBK cells (MTS/PMS); type: cell-based, bovine; details: bovine
Method: Assays were carried out, as described previously.

BVDV NADL virus = experiment: CPE-based antiviral assay, BVDV NADL in MDBK cells (MTS/PMS); details: for EC50: Bovine viral diarrhea virus isolates and strains, MDBK, 72 h; for S.I.: selectivity index, CC50 vs EC50
[2] = sheet CSFCI#, potency relative to TO505-6180 (EC50 0.07 µM)
[3] = sheet CSFCII#, potency relative to TO502-2403 (EC50 0.2 µM)

Row | Compound | CC50 at 5 days [1] | EC50 (BVDV NADL virus) | S.I. (BVDV NADL virus) | fold increase (BVDV NADL virus; [2]) | fold increase (BVDV NADL virus; [3])
1 | Cc1ccc2nc(NC(=O)c3cc4ccccc4[nH]3)sc2c1 [CSFC-28, Cc1ccc2nc(NC(=O)c3cc4ccccc4[NH]3)sc2c1] | > 100 µM | > 100000 nM | 1 | 0.0007 | 
2 | Cc1ccc(-n2ccc(NC(=O)c3cc(-c4cccnc4)nc4ccccc34)n2)cc1 [CSFC-140, Cc1ccc(cc1)n2ccc(n2)NC(=O)c4cc(nc3ccccc34)c5cccnc5] | 16 µM | 20 nM |  |  | 10.00
3 | O=C(Nc1ccn(-c2ccccc2Cl)n1)c1cc(-c2ccccc2)nc2ccccc12 [CSFC-131, Clc1ccccc1n2ccc(n2)NC(=O)c4cc(nc3ccccc34)c5ccccc5] | > 100 µM | 100 nM | 1000 |  | 2.00
4 | Cc1ccc2nc(NC(=O)c3ccccn3)sc2c1 [CSFC-25, Cc1ccc2nc(NC(=O)c3ccccn3)sc2c1] | > 100 µM | > 100000 nM | 1 | 0.0007 | 
5 | O=C(Nc1nc2cc(Cl)ccc2s1)c1cc(-c2ccco2)nc2ccccc12 [CSFC-55, Clc1cc2nc(sc2cc1)NC(=O)c4cc(nc3ccccc34)c5ccco5] | > 100 µM | 100000 nM | 1 |  | 0.002
6 | O=C(Nc1nc2c(C(F)(F)F)cccc2s1)c1cc(-c2ccccc2)nc2ccccc12 [CSFC-148, FC(F)(F)c1cccc2sc(nc12)NC(=O)c1cc(nc2ccccc21)c1ccccc1] | 20 ± 1.6 µM | 300 nM | 67 | 0.23 | 
7 | COc1ccc(-n2ccc(NC(=O)c3cc(-c4ccc(F)cc4)nc4ccccc34)n2)cc1 [CSFC-91, Fc1ccc(cc1)c3nc2ccccc2c(c3)C(=O)Nc4ccn(n4)c5ccc(OC)cc5] | > 100 µM | 1000 nM | 100 |  | 0.20
8 | Cc1cccc2sc(NC(=O)c3cc(-c4cnccn4)nc4ccccc34)nc12 [CSFC-116, Cc1cccc2sc(nc12)NC(=O)c4cc(nc3ccccc34)c5cnccn5] | > 100 µM | 300 nM | 333 |  | 0.67
9 | Cc1ccc2nc(-c3ccco3)cc(C(=O)Nc3nc4c(C)cccc4s3)c2c1 [CSFC-72, Cc1cc2c(cc1)nc(cc2C(=O)Nc3nc4c(C)cccc4s3)c5ccco5] | > 100 µM | 8700 nM | 11 |  | 0.023
10 | O=C(Nc1nc2ccc(C(F)(F)F)cc2s1)c1cc(-c2ccccc2)nc2ccccc12 [CSFC-94, FC(F)(F)c1ccc2nc(sc2c1)NC(=O)c4cc(nc3ccccc34)c5ccccc5] | > 100 µM | 100000 nM | 1 |  | 0.002
11 | COc1ccc2nc(NC(=O)c3cc(-c4cccc(F)c4)nc4ccccc34)sc2c1 [CSFC-67, Fc1cccc(c1)c3nc2ccccc2c(c3)C(=O)Nc4nc5ccc(cc5s4)OC] | > 100 µM | 900 nM | 111 |  | 0.22
12 | Cc1cccc2sc(NC(=O)c3cc(-c4ccco4)nc4ccc(CO)cc34)nc12 [CSFC-74, OCc1cc2c(cc1)nc(cc2C(=O)Nc1nc2c(C)cccc2s1)c1ccco1] | > 100 µM | 100000 nM | 1 |  | 0.002
13 | Cc1ccc2nc(NC(=O)c3cccc4ccccc34)sc2c1 [CSFC-24, Cc1ccc2nc(NC(=O)c3cccc4ccccc43)sc2c1] | > 100 µM | > 100000 nM | 1 | 0.0007 | 
14 | Cc1sc(NC(=O)c2cc(-c3ccccc3)nc3ccccc23)nc1-c1ccccc1 [CSFC-110, O=C(Nc2nc(c1ccccc1)c(C)s2)c4cc(nc3ccccc34)c5ccccc5] | > 100 µM | 300 nM | 333 |  | 0.67
15 | Cc1cc(NC(=O)c2cc(-c3ccccc3)nc3ccccc23)no1 [CSFC-40, Cc1cc(no1)NC(=O)c3cc(nc2ccccc23)c4ccccc4] | > 100 µM | 94000 nM | 1 |  | 0.00213
16 | Cc1cccc2sc(NC(=O)c3cc(-c4ccccc4F)nc4c(F)cccc34)nc12 [CSFC-103, Fc1ccccc1c3nc2c(cccc2F)c(c3)C(=O)Nc4nc5c(C)cccc5s4] | > 100 µM | 500 nM | 200 |  | 0.40
17 | Cc1ccc(-n2ccc(NC(=O)c3cc(-c4ccccc4)nc4ccccc34)n2)cc1 [CSFC-141, Cc1ccc(cc1)n2ccc(n2)NC(=O)c4cc(nc3ccccc34)c5ccccc5] | > 100 µM | 600 nM | 167 |  | 0.33
18 | Cc1cccc(-n2ccc(NC(=O)c3cc(-c4cccnc4)nc4ccccc34)n2)c1 [CSFC-130, Cc1cccc(c1)n2ccc(n2)NC(=O)c4cc(nc3ccccc34)c5cccnc5] | 5 µM | 20 nM |  |  | 10.00
19 | O=C(Nc1cccnc1)c1cc(-c2ccccc2)nc2ccccc12 [CSFC-7, O=C(Nc1cccnc1)c1cc(nc2ccccc21)c1ccccc1] | > 100 µM | > 100000 nM | 1 | 0.0007 | 

Row | Compound | CC50 at 5 days [1] | EC50 (BVDV NADL virus) | S.I. (BVDV NADL virus) | fold increase (BVDV NADL virus; [2]) | fold increase (BVDV NADL virus; [3])
20 | O=C(Nc1ccn(-c2ccccc2)n1)c1cc(-c2cnccn2)nc2ccccc12 [CSFC-108, O=C(c2cc(nc1ccccc12)c3cnccn3)Nc4ccn(n4)c5ccccc5] | > 100 µM | 200 nM | 500 |  | 1.00
21 | O=C(Nc1ccn(-c2ccccc2)n1)c1cc(-c2cccs2)nc2c(F)cccc12 [CSFC-100, O=C(Nc1ccn(n1)c2ccccc2)c4cc(nc3c(F)cccc34)c5cccs5] | > 100 µM | 50 nM | 2000 |  | 4.00
22 | O=C(Nc1ccn(-c2ccccc2)n1)c1cc(-c2cccs2)nc2ccc(I)cc12 [CSFC-97, O=C(Nc1ccn(n1)c2ccccc2)c4cc(nc3ccc(I)cc34)c5cccs5] | > 100 µM | 4100 nM | 24 |  | 0.05
23 | COc1ccc2nc(NC(=O)c3cc(-c4ccco4)nc4ccc(Cl)cc34)sc2c1 [CSFC-81, Clc1cc2c(cc1)nc(cc2C(=O)Nc3nc4ccc(cc4s3)OC)c5ccco5] | > 100 µM | 24500 nM | 4 |  | 0.00816
24 | O=C(Nc1ccn(-c2ccccc2)n1)c1cc(-c2cccc3ccccc23)nc2ccccc12 [CSFC-143, O=C(c2cc(nc1ccccc12)c4cccc3ccccc34)Nc5ccn(n5)c6ccccc6] | > 100 µM | 100 nM | 1000 |  | 2.00
25 | Cc1ccc2nc(NC(=O)c3ccccc3)sc2c1 [CSFC-29, Cc1ccc2nc(NC(=O)c3ccccc3)sc2c1] | > 100 µM | > 100000 nM | 1 | 0.0007 | 
26 | COc1ccc2nc(NC(=O)c3cc(-c4ccco4)nc4ccc(OC)cc34)sc2c1 [CSFC-64, O=C(c2cc(nc1ccc(OC)cc12)c3ccco3)Nc4nc5ccc(cc5s4)OC] | > 100 µM | 16000 nM | 6 |  | 0.0125
27 | Cc1ccccc1-n1ccc(NC(=O)c2cc(-c3ccccc3)nc3ccccc23)n1 [CSFC-142, Cc1ccccc1n2ccc(n2)NC(=O)c4cc(nc3ccccc34)c5ccccc5] | 23 µM | 2300 nM | 10 |  | 0.09
28 | COc1ccc2nc(NC(=O)c3cc(-c4ccccc4)nc4ccccc34)sc2c1 [CSFC-9, COc1ccc2nc(NC(=O)c3cc(nc4ccccc43)c3ccccc3)sc2c1] | > 100 µM | 300 nM | 333 | 0.23 | 
29 | Cc1cccc(-n2ccc(NC(=O)c3cc(-c4ccccc4)nc4ccccc34)n2)c1 [CSFC-133, Cc1cccc(c1)n2ccc(n2)NC(=O)c4cc(nc3ccccc34)c5ccccc5] | > 100 µM | 20 nM |  |  | 10.00
30 | Cc1cc2nc(NC(=O)c3cc(-c4ccco4)nc4ccccc34)sc2cc1C [CSFC-39, Cc1cc2nc(NC(=O)c3cc(nc4ccccc43)c3ccco3)sc2cc1C] | > 100 µM | 600 nM | 167 | 0.12 | 
31 | O=C(Nc1ccn(-c2cc(F)cc(F)c2)n1)c1cc(-c2ccccc2)nc2ccccc12 [CSFC-144, Fc1cc(F)cc(c1)n2ccc(n2)NC(=O)c4cc(nc3ccccc34)c5ccccc5] | > 100 µM | 20 nM |  |  | 10.00
32 | O=C(Nc1ccn(-c2ccccc2)n1)c1cc(-c2cccs2)nc2c(Cl)cccc12 [CSFC-109, O=C(Nc1ccn(n1)c2ccccc2)c4cc(nc3c(Cl)cccc34)c5cccs5] | 13 µM | 200 nM | 65 |  | 1.00
33 | COc1ccc2nc(NC(=O)c3cc(-c4ccco4)nc4c(C)cc(C)cc34)sc2c1 [CSFC-65, O=C(c2cc(nc1c2cc(cc1C)C)c3ccco3)Nc4nc5ccc(cc5s4)OC] | > 100 µM | 5800 nM | 17 |  | 0.0345
34 | Cc1cc(NC(=O)c2cc(-c3ccco3)nc3ccccc23)on1 [CSFC-42, O=C(Nc1cc(C)no1)c3cc(nc2ccccc23)c4ccco4] | > 100 µM | 17500 nM | 6 |  | 0.0114
35 | COc1ccc(-c2cc(C(=O)Nc3ccn(-c4ccccc4)n3)c3ccccc3n2)cc1F [CSFC-107, COc1ccc(cc1F)c3nc2ccccc2c(c3)C(=O)Nc4ccn(n4)c5ccccc5] | > 100 µM | 600 nM | 167 |  | 0.33
36 | Cc1ccc2nc(NC(=O)c3cccnc3)sc2c1 [CSFC-23, Cc1ccc2nc(NC(=O)c3cccnc3)sc2c1] | > 100 µM | > 100000 nM | 1 | 0.0007 | 
37 | O=C(Nc1nc2ccc(Br)cc2s1)c1cc(-c2ccccc2)nc2ccccc12 [CSFC-14, Brc1ccc2nc(NC(=O)c3cc(nc4ccccc43)c3ccccc3)sc2c1] | > 100 µM | 1400 nM | 71 | 0.05 | 
